# According to patent US8497245B2, “Trypsin-like serine protease inhibitors, their preparation and use as selective inhibitors of the clotting factors IIa and Xa” (The Medicines Company (Leipzig) GmbH, priority 2010, dated 2013):
# Target: T1, Human plasma kallikrein (h PK) (Homo sapiens, UniProt P03952)
# T1 construct: purchased Enzyme Research Laboratories
# Assay: Inhibition of human plasma kallikrein (reference enzyme)
# Assay type: biochemical
# Conditions: S2302 substrate
# Procedure: (§1) The inhibitory effect against the individual purified enzymes was determined in analogy to a previously disclosed method (Stürzebecher et al., J. Med. Chem., 40, 3091-3099 (1997)).
# (§2) The release of p-nitroaniline (p-NA, the chromogenic product of the proteolytic activity), was determined by change in absorbance at 405 nm. The equilibrium rates were used to calculate the inhibitor/enzyme dissociation constant (Ki values) by parameter fitting in accordance with the rate equation for competitive inhibition using GraFit (version 4 from Erithacus). The results are reported as Ki values (nanomolar) in table 7 and are the average of at least three determinations.
# (§3) Dissociation constants were calculated as described herein.
# T1 sequence (P03952 391-638 limits assumed): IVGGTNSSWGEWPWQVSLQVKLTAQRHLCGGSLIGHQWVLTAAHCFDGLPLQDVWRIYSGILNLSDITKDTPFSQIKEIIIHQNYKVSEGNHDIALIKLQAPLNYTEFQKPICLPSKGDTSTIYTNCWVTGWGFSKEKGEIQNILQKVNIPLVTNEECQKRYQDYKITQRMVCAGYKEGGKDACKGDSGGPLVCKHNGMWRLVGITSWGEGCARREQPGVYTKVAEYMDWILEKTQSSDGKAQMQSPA
# T1 sequence (P03952 20-390 partner limits assumed): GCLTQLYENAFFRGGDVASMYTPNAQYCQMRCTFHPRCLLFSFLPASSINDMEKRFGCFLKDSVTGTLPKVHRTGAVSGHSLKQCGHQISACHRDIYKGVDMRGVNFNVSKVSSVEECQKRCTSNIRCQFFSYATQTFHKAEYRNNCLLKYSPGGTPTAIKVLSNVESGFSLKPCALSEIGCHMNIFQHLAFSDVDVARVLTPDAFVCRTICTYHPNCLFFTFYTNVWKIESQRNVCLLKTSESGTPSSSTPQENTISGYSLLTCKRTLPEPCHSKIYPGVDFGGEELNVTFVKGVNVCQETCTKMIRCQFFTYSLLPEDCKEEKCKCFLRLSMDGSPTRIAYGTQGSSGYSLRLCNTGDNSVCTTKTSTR
row,Compound,Ki [µM]
1,CN(CC1CCNCC1)C(=O)C[C@@H](NS(=O)(=O)Cc1ccccc1)C(=O)N1CCC[C@H]1C(=O)NCc1cc(Cl)ccc1CN [Compound 2.16],0.417
2,CC(=O)N1CCC(CN(C)C(=O)C[C@@H](NS(=O)(=O)Cc2ccccc2)C(=O)N2CCC[C@H]2C(=O)NCc2cc(Cl)ccc2CN)CC1 [Compound 2.17],0.417
3,CN1CCN(C(=O)C[C@@H](NS(=O)(=O)Cc2ccccc2)C(=O)N2CCC[C@H]2C(=O)NCc2cc(Cl)ccc2CN)CC1 [Compound 2.18],0.17

# Target: T2, Human urokinase type plasminogen activator (h u-PA) (Homo sapiens, UniProt P00749)
# T2 construct: purchased MEDAC GmbH Urokinase HS medac
# Assay: Inhibition of human urokinase type plasminogen activator (reference enzyme)
# Assay type: biochemical
# Conditions: H-Glu-Gly-Arg-pNA substrate
# Procedure: as §1, §2, §3
row,Compound,Ki [µM]
1,CN(CC1CCNCC1)C(=O)C[C@@H](NS(=O)(=O)Cc1ccccc1)C(=O)N1CCC[C@H]1C(=O)NCc1cc(Cl)ccc1CN [Compound 2.16],> 100
2,CC(=O)N1CCC(CN(C)C(=O)C[C@@H](NS(=O)(=O)Cc2ccccc2)C(=O)N2CCC[C@H]2C(=O)NCc2cc(Cl)ccc2CN)CC1 [Compound 2.17],> 40
3,CN1CCN(C(=O)C[C@@H](NS(=O)(=O)Cc2ccccc2)C(=O)N2CCC[C@H]2C(=O)NCc2cc(Cl)ccc2CN)CC1 [Compound 2.18],> 100

# Target: T3, Human plasmin (h plasmin) (Homo sapiens, UniProt P00747)
# T3 construct: purchased Calbiochem
# T3 sequence (P00747 581-810 limits assumed): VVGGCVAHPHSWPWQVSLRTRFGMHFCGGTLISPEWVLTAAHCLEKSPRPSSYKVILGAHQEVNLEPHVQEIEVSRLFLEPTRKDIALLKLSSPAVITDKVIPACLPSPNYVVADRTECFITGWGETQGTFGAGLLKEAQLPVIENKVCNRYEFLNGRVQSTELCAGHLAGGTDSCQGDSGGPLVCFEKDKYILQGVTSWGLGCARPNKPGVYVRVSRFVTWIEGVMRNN
# T3 sequence (P00747 97-580 partner limits assumed): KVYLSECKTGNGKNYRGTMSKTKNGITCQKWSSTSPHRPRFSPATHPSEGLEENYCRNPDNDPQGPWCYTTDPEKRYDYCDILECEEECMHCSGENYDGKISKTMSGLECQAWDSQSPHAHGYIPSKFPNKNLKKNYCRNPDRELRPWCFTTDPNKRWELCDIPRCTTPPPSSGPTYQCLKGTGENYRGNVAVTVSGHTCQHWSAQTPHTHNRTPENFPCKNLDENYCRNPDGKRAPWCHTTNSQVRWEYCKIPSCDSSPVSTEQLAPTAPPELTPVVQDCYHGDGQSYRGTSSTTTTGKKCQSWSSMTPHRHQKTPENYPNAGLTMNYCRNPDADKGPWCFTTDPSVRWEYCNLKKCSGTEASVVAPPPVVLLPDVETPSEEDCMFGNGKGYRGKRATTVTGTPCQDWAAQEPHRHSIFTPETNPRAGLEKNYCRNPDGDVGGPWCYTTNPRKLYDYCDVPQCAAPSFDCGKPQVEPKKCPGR
# Assay: Inhibition of human plasmin (reference enzyme)
# Assay type: biochemical
# Conditions: Chromozym PL substrate
# Procedure: as §1, §2, §3
row,Compound,Ki [µM]
1,CN(CC1CCNCC1)C(=O)C[C@@H](NS(=O)(=O)Cc1ccccc1)C(=O)N1CCC[C@H]1C(=O)NCc1cc(Cl)ccc1CN [Compound 2.16],> 5
2,CC(=O)N1CCC(CN(C)C(=O)C[C@@H](NS(=O)(=O)Cc2ccccc2)C(=O)N2CCC[C@H]2C(=O)NCc2cc(Cl)ccc2CN)CC1 [Compound 2.17],> 5
3,CN1CCN(C(=O)C[C@@H](NS(=O)(=O)Cc2ccccc2)C(=O)N2CCC[C@H]2C(=O)NCc2cc(Cl)ccc2CN)CC1 [Compound 2.18],> 10

# Target: T4, Human tissue-type plasminogen activator (h t-PA) (Homo sapiens, UniProt P00750)
# T4 construct: purchased Boehringer Ingelheim Actilyse
# T4 sequence (P00750 36-562): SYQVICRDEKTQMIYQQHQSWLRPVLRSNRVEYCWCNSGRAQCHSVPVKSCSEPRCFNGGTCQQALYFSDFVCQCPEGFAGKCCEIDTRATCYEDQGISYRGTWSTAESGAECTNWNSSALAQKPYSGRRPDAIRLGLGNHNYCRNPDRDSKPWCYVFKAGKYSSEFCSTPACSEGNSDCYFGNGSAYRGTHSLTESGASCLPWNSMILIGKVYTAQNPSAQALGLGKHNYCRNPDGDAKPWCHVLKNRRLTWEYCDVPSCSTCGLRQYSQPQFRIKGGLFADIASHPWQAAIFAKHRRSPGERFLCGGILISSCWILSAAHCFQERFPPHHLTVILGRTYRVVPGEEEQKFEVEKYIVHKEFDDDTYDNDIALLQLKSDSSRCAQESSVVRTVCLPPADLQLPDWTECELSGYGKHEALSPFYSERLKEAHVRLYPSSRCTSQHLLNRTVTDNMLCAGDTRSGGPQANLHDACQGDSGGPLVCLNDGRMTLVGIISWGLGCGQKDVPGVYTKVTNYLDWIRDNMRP
# Assay: Inhibition of human tissue-type plasminogen activator (reference enzyme)
# Assay type: biochemical
# Conditions: Pefachrome tPA substrate; read-out: Ki h t-PA
# Procedure: The equilibrium rates were used to calculate the inhibitor/enzyme dissociation constant (Ki values) by parameter fitting in accordance with the rate equation for competitive inhibition using GraFit (version 4 from Erithacus).
# as §3
row,Compound,Ki [µM]
1,CN(CC1CCNCC1)C(=O)C[C@@H](NS(=O)(=O)Cc1ccccc1)C(=O)N1CCC[C@H]1C(=O)NCc1cc(Cl)ccc1CN [Compound 2.16],> 50
2,CC(=O)N1CCC(CN(C)C(=O)C[C@@H](NS(=O)(=O)Cc2ccccc2)C(=O)N2CCC[C@H]2C(=O)NCc2cc(Cl)ccc2CN)CC1 [Compound 2.17],> 100
3,CN1CCN(C(=O)C[C@@H](NS(=O)(=O)Cc2ccccc2)C(=O)N2CCC[C@H]2C(=O)NCc2cc(Cl)ccc2CN)CC1 [Compound 2.18],> 50

# Target: T5, Human Activated Protein C (h aPC) (Homo sapiens, UniProt P04070)
# T5 construct: purchased Enzyme Research Laboratories
# T5 sequence (P04070 212-450 limits assumed): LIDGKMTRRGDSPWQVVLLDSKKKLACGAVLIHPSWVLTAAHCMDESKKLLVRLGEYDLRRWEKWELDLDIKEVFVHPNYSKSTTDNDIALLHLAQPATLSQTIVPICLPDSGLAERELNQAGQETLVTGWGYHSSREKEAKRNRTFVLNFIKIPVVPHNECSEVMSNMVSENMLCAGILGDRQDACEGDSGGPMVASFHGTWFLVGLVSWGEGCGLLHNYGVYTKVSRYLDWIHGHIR
# T5 sequence (P04070 43-197 partner limits assumed): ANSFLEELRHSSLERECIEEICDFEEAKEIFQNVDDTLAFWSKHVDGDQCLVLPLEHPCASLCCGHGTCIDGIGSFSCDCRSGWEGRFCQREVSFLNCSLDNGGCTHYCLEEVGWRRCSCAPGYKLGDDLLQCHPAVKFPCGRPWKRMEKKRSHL
# Assay: Inhibition of human activated protein C (reference enzyme)
# Assay type: biochemical
# Conditions: Pefachrome PCa substrate
# Procedure: as §1, §2, §3
row,Compound,Ki [µM]
1,CN(CC1CCNCC1)C(=O)C[C@@H](NS(=O)(=O)Cc1ccccc1)C(=O)N1CCC[C@H]1C(=O)NCc1cc(Cl)ccc1CN [Compound 2.16],> 100
2,CC(=O)N1CCC(CN(C)C(=O)C[C@@H](NS(=O)(=O)Cc2ccccc2)C(=O)N2CCC[C@H]2C(=O)NCc2cc(Cl)ccc2CN)CC1 [Compound 2.17],> 40
3,CN1CCN(C(=O)C[C@@H](NS(=O)(=O)Cc2ccccc2)C(=O)N2CCC[C@H]2C(=O)NCc2cc(Cl)ccc2CN)CC1 [Compound 2.18],> 100

# Target: T6, human Factor Xa (Homo sapiens, UniProt P00742)
# T6 construct: human Factor Xa from Enzyme Research Laboratories; purchased Enzyme Research Laboratories
# T6 sequence (P00742 235-488 limits assumed): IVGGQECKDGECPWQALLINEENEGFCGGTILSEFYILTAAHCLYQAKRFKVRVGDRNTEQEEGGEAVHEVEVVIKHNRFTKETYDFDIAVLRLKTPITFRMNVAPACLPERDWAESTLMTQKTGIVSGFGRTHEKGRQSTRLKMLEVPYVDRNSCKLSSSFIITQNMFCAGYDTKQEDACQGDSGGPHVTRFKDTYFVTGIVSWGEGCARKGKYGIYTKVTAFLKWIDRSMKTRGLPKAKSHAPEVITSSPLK
# T6 sequence (P00742 41-179 partner limits assumed): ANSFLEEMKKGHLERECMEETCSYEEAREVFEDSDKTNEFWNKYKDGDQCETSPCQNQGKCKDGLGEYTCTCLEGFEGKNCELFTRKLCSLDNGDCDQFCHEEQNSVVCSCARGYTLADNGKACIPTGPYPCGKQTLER
# Assay: Inhibition constants for human factor Xa, chromogenic substrate assay
# Assay type: biochemical
# Conditions: 25° C., Pefachrome FXa substrate, average of at least three determinations; read-out: Ki h FXa
# Procedure: as §1
# (§4) 200 μL of TBS (0.05 M trishydroxymethylaminomethane; 0.154 M NaCl, 2% ethanol, pH 8.0)
# as §2
row,Compound,Ki [µM]
1,CN(CC1CCNCC1)C(=O)C[C@@H](NS(=O)(=O)Cc1ccccc1)C(=O)N1CCC[C@H]1C(=O)NCc1cc(Cl)ccc1CN [Compound 2.16],0.0015
2,CC(=O)N1CCC(CN(C)C(=O)C[C@@H](NS(=O)(=O)Cc2ccccc2)C(=O)N2CCC[C@H]2C(=O)NCc2cc(Cl)ccc2CN)CC1 [Compound 2.17],0.0037
3,CN1CCN(C(=O)C[C@@H](NS(=O)(=O)Cc2ccccc2)C(=O)N2CCC[C@H]2C(=O)NCc2cc(Cl)ccc2CN)CC1 [Compound 2.18],0.0079

# Target: T7, Subcomponent "s" of Human Complement Component 1 (h C1s) (Homo sapiens, UniProt P09871)
# T7 construct: purchased Calbiochem
# T7 sequence (P09871 438-688 limits assumed): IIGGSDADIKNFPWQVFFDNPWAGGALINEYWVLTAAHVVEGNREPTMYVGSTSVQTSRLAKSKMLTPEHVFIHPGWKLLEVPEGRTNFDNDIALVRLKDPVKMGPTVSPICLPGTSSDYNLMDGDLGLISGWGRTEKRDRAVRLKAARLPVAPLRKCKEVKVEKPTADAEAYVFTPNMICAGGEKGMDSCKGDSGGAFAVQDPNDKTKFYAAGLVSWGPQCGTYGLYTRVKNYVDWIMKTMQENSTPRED
# T7 sequence (P09871 16-437 partner limits assumed): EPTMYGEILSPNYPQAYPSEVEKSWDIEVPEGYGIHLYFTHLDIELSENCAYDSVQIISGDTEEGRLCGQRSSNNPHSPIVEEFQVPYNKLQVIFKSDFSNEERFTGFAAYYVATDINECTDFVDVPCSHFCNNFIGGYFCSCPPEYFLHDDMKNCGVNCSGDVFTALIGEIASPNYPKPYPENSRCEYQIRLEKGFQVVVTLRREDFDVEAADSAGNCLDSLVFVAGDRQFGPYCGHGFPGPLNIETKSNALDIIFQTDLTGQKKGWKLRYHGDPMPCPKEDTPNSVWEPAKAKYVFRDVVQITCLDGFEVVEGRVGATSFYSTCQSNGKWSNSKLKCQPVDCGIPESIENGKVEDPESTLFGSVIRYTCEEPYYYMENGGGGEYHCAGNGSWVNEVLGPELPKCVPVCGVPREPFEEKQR
# Assay: Inhibition of human C1s (reference enzyme)
# Assay type: biochemical
# Conditions: S-2314 substrate; read-out: Ki h Cls
# Procedure: as §1, §2, §3
row,Compound,Ki [µM]
1,CN(CC1CCNCC1)C(=O)C[C@@H](NS(=O)(=O)Cc1ccccc1)C(=O)N1CCC[C@H]1C(=O)NCc1cc(Cl)ccc1CN [Compound 2.16],> 50
2,CC(=O)N1CCC(CN(C)C(=O)C[C@@H](NS(=O)(=O)Cc2ccccc2)C(=O)N2CCC[C@H]2C(=O)NCc2cc(Cl)ccc2CN)CC1 [Compound 2.17],> 100
3,CN1CCN(C(=O)C[C@@H](NS(=O)(=O)Cc2ccccc2)C(=O)N2CCC[C@H]2C(=O)NCc2cc(Cl)ccc2CN)CC1 [Compound 2.18],> 50

# Target: T8, Human urinary kallikrein (h uKK) (Homo sapiens, UniProt P06870)
# T8 construct: purchased Lee Biosolutions
# T8 sequence (P06870 25-262): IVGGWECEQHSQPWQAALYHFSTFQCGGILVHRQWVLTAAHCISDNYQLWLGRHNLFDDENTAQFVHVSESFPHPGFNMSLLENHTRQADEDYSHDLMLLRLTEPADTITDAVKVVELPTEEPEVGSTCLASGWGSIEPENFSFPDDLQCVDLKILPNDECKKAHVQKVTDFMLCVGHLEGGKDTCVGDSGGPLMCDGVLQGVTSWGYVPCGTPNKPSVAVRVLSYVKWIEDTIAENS
# Assay: Inhibition of human urinary kallikrein (reference enzyme)
# Assay type: biochemical
# Conditions: S-2266 substrate
# Procedure: as §1, §2, §3
row,Compound,Ki [µM]
1,CN(CC1CCNCC1)C(=O)C[C@@H](NS(=O)(=O)Cc1ccccc1)C(=O)N1CCC[C@H]1C(=O)NCc1cc(Cl)ccc1CN [Compound 2.16],> 50
2,CC(=O)N1CCC(CN(C)C(=O)C[C@@H](NS(=O)(=O)Cc2ccccc2)C(=O)N2CCC[C@H]2C(=O)NCc2cc(Cl)ccc2CN)CC1 [Compound 2.17],> 20
3,CN1CCN(C(=O)C[C@@H](NS(=O)(=O)Cc2ccccc2)C(=O)N2CCC[C@H]2C(=O)NCc2cc(Cl)ccc2CN)CC1 [Compound 2.18],> 20

# Target: T9, human factor IIa (human alpha-thrombin) (Homo sapiens, UniProt P00734)
# T9 construct: human alpha-thrombin from Enzyme Research Laboratories; purchased Enzyme Research Laboratories
# Assay: Inhibition constants for human factor IIa, chromogenic substrate assay
# Assay type: biochemical
# Conditions: 25° C., Pefachrome tPA substrate, average of at least three determinations; read-out: Ki h FIIa
# Procedure: as §1, §4, §2
row,Compound,Ki [µM]
1,CN(CC1CCNCC1)C(=O)C[C@@H](NS(=O)(=O)Cc1ccccc1)C(=O)N1CCC[C@H]1C(=O)NCc1cc(Cl)ccc1CN [Compound 2.16],0.0003
2,CC(=O)N1CCC(CN(C)C(=O)C[C@@H](NS(=O)(=O)Cc2ccccc2)C(=O)N2CCC[C@H]2C(=O)NCc2cc(Cl)ccc2CN)CC1 [Compound 2.17],0.0002
3,CN1CCN(C(=O)C[C@@H](NS(=O)(=O)Cc2ccccc2)C(=O)N2CCC[C@H]2C(=O)NCc2cc(Cl)ccc2CN)CC1 [Compound 2.18],0.0015

# Target: T10, Subcomponent "r" of Human Complement Component 1 (h C1r) (Homo sapiens, UniProt P00736)
# T10 construct: purchased Calbiochem
# T10 sequence (P00736 464-705 limits assumed): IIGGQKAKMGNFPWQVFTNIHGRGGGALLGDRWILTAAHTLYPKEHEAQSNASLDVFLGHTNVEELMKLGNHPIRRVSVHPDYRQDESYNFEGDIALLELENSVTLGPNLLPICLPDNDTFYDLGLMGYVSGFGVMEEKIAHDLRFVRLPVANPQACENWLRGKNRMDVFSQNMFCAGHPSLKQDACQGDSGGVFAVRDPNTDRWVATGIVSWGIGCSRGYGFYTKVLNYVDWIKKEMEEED
# T10 sequence (P00736 18-463 partner limits assumed): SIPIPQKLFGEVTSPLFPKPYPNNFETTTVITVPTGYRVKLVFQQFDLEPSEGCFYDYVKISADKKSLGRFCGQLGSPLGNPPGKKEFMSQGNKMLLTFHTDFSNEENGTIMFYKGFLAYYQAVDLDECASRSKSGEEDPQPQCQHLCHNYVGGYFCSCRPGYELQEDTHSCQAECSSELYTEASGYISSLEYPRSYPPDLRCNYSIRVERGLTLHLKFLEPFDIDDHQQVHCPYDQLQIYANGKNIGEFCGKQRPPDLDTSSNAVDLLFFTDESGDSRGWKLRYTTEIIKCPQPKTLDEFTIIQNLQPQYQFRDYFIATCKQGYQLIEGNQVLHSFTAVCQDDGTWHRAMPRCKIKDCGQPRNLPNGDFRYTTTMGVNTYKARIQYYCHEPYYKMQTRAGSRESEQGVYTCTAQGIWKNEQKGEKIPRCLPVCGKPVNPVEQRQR
# Assay: Inhibition of human C1r (reference enzyme)
# Assay type: biochemical
# Conditions: S-2314 substrate; read-out: Ki h Clr
# Procedure: as §1, §2, §3
row,Compound,Ki [µM]
1,CN(CC1CCNCC1)C(=O)C[C@@H](NS(=O)(=O)Cc1ccccc1)C(=O)N1CCC[C@H]1C(=O)NCc1cc(Cl)ccc1CN [Compound 2.16],> 10
2,CC(=O)N1CCC(CN(C)C(=O)C[C@@H](NS(=O)(=O)Cc2ccccc2)C(=O)N2CCC[C@H]2C(=O)NCc2cc(Cl)ccc2CN)CC1 [Compound 2.17],> 10
3,CN1CCN(C(=O)C[C@@H](NS(=O)(=O)Cc2ccccc2)C(=O)N2CCC[C@H]2C(=O)NCc2cc(Cl)ccc2CN)CC1 [Compound 2.18],> 25
